In ChEMBL document CHEMBL1141023, “DNA gyrase (GyrB)/topoisomerase IV (ParE) inhibitors: synthesis and antibacterial activity” (Bioorg Med Chem Lett, 2009):
In brackets after ≈: the same amount, converted by molar mass.

Assays:
[1] = Inhibition of Escherichia coli GyrB ATPase activity assessed as inorganic phosphate release by malachite green complex formation assay
Staphylococcus aureus [2] = experiment: Antibacterial activity against Staphylococcus aureus ATCC 29213; type: functional
Enterococcus faecalis [3] = experiment: Antibacterial activity against Enterococcus faecalis ATCC 29212; type: functional
Escherichia coli [4] = experiment: Antibacterial activity against efflux pump mutant expressing Escherichia coli ATCC N43; type: functional
Streptococcus pyogenes = experiment: Antibacterial activity against Streptococcus pyogenes ATCC 51339; type: functional
[5] = Inhibition of Escherichia coli DNA topoisomerase 4 subunit B ParE assessed as inorganic phosphate release by malachite green complex formation assay
Escherichia coli [6] = experiment: Antibacterial activity against Escherichia coli ATCC 25922; type: functional
Haemophilus influenzae = experiment: Antibacterial activity against Haemophilus influenzae ATCC 49247; type: functional
Moraxella catarrhalis = experiment: Antibacterial activity against Moraxella catarrhalis ATCC 25240; type: functional
Pseudomonas aeruginosa = experiment: Antibacterial activity against Pseudomonas aeruginosa 101021; type: functional
Enterococcus faecalis [7] = experiment: Antibacterial activity against vancomycin-resistant Enterococcus faecalis 1.5604; type: functional
Staphylococcus aureus [8] = experiment: Antibacterial activity against methicillin-susceptible Staphylococcus aureus 601055; type: functional
Staphylococcus aureus [9] = experiment: Antibacterial activity against methicillin-resistant Staphylococcus aureus 43300; type: functional
Staphylococcus aureus [10] = experiment: Antibacterial activity against methicillin-resistant Staphylococcus aureus ATCC 700698; type: functional
Staphylococcus aureus [11] = experiment: Antibacterial activity against methicillin-susceptible Staphylococcus aureus Smith ATCC 19636; type: functional
Streptococcus pneumoniae = experiment: Antibacterial activity against Streptococcus pneumoniae ATCC 49619; type: functional
[12] = Toxicity against human HepG2 cells assessed as effect on mitochondrial dehydrogenase activity after 24 hrs; type: cell-based
Neisseria gonorrhoeae = experiment: Antimicrobial activity against Neisseria gonorrhoeae; type: functional

Row | SMILES | IC50 [1] [µM] | MIC (Staphylococcus aureus [2]) [µg/mL] | MIC (Enterococcus faecalis [3]) [µg/mL] | MIC (Escherichia coli [4]) [µg/mL] | MIC (Streptococcus pyogenes) [µg/mL] | IC50 [5] [µM] | MIC (Escherichia coli [6]) [µg/mL] | MIC (Haemophilus influenzae) [µg/mL] | MIC (Moraxella catarrhalis) [µg/mL] | MIC (Pseudomonas aeruginosa) [µg/mL] | MIC (Enterococcus faecalis [7]) [µg/mL] | MIC (Staphylococcus aureus [8]) [µg/mL] | MIC (Staphylococcus aureus [9]) [µg/mL] | MIC (Staphylococcus aureus [10]) [µg/mL] | MIC (Staphylococcus aureus [11]) [µg/mL] | MIC (Streptococcus pneumoniae) [µg/mL] | IC50 at 24 h [12] [µg/mL] | MIC (Neisseria gonorrhoeae) [µg/mL]
1 | CCNC(=O)Nc1nc2cc(-c3cccnc3)cc(C(=O)N(C)C)n2n1 | 3.2 | 256 (≈ 724 µM) | 256 (≈ 724 µM) | 256 (≈ 724 µM) | 256 (≈ 724 µM) | – | – | – | – | – | – | – | – | – | – | – | – | –
2 | CCNC(=O)Nc1nc2cc(-c3cccnc3)cc(-c3cnn(C)c3)n2n1 | 0.34 | 32 (≈ 88.3 µM) | 8 (≈ 22.1 µM) | > 128 | 32 (≈ 88.3 µM) | – | – | – | – | – | – | – | – | – | – | – | – | –
3 | CCNC(=O)Nc1cn2ccc(-c3cccnc3)cc2n1 | 0.39 | 32 (≈ 114 µM) | 32 (≈ 114 µM) | 32 (≈ 114 µM) | – | – | – | – | – | – | – | – | – | – | – | – | – | –
4 | CCNC(=O)Nc1nc2ccc(-c3cccnc3)cn2n1 | 9.64 | > 256 | > 256 | – | – | – | – | – | – | – | – | – | – | – | – | – | – | –
5 | CCNC(=O)Nc1nc2cc(-c3cccnc3)cc(-c3cccnc3)n2n1 | 0.61 | > 256 | > 256 | > 256 | > 256 | – | – | – | – | – | – | – | – | – | – | – | – | –
6 | CCNC(=O)Nc1nc2cc(-c3cccnc3)cc(-c3ccc(OC)cc3)n2n1 | 0.37 | > 128 | > 128 | > 128 | > 128 | – | – | – | – | – | – | – | – | – | – | – | – | –
7 | CCNC(=O)Nc1nc2cc(-c3cccnc3)cc(-c3cnccn3)n2n1 | 0.98 | > 128 | > 128 | > 128 | > 128 | – | – | – | – | – | – | – | – | – | – | – | – | –
8 | CCNC(=O)Nc1nc2cc(-c3cccnc3)cc(-c3nccs3)n2n1 | 0.042 | 1 (≈ 2.74 µM) | 1 (≈ 2.74 µM) | > 128 | 1 (≈ 2.74 µM) | 11 | > 128 | > 128 | 0.5 (≈ 1.37 µM) | > 128 | 1 (≈ 2.74 µM) | 1 (≈ 2.74 µM) | 1 (≈ 2.74 µM) | 0.5 (≈ 1.37 µM) | 1 (≈ 2.74 µM) | 1 (≈ 2.74 µM) | > 64 | –
9 | CCNC(=O)Nc1nc2cc(-c3cccnc3)cc(-c3cn[nH]c3)n2n1 | 0.2 | > 256 | 8 (≈ 23 µM) | > 256 | 4 (≈ 11.5 µM) | – | – | – | – | – | – | – | – | – | – | – | – | –
10 | CCNC(=O)Nc1nc2cc(-c3cccnc3)cc(C(=O)NCC)n2n1 | 0.041 | 8 (≈ 22.6 µM) | 4 (≈ 11.3 µM) | 8 (≈ 22.6 µM) | 8 (≈ 22.6 µM) | 40 | > 128 | 16 (≈ 45.3 µM) | 2 (≈ 5.66 µM) | > 128 | 4 (≈ 11.3 µM) | 4 (≈ 11.3 µM) | 4 (≈ 11.3 µM) | 2 (≈ 5.66 µM) | 4 (≈ 11.3 µM) | 4 (≈ 11.3 µM) | > 64 | 1 (≈ 2.83 µM)
11 | CCNC(=O)Nc1nc2cc(-c3cccnc3)cc(-c3cccc(NC(C)=O)c3)n2n1 | 1.08 | > 256 | > 256 | > 256 | > 256 | – | – | – | – | – | – | – | – | – | – | – | – | –
12 | CCNC(=O)Nc1nc2cc(-c3cccnc3)cc(-c3cccc(C(C)=O)c3)n2n1 | 1.01 | > 256 | > 256 | > 256 | > 256 | – | – | – | – | – | – | – | – | – | – | – | – | –
13 | CCNC(=O)Nc1nc2cc(-c3cccnc3)cc(-n3ccnc3)n2n1 | 1.15 | 32 (≈ 91.9 µM) | 32 (≈ 91.9 µM) | 32 (≈ 91.9 µM) | 32 (≈ 91.9 µM) | – | – | – | – | – | – | – | – | – | – | – | – | –
14 | CCNC(=O)Nc1nc2cc(-c3cccnc3)cc(-n3cncn3)n2n1 | 1.43 | 16 (≈ 45.8 µM) | 16 (≈ 45.8 µM) | 32 (≈ 91.6 µM) | 32 (≈ 91.6 µM) | – | – | – | – | – | – | – | – | – | – | – | – | –
15 | CCNC(=O)Nc1nc2cc(-c3cccnc3)cc(C(=O)OC)n2n1 | 1.3 | > 256 | > 256 | > 256 | > 256 | – | – | – | – | – | – | – | – | – | – | – | – | –
